Values of other authors in patent US9770413B2, “Amphiphilic dendron-coils, micelles thereof and uses” (THE BOARD OF TRUSTEES OF THE UNIVERSITY OF ILLINOIS, priority 2011, dated 2017).

Target: folate receptors (FR)

## Nc1nc2ncc(CNc3ccc(C(=O)N[C@@H](CCC(=O)O)C(=O)O)cc3)nc2c(=O)[nH]1 [FA, folic acid]
  Kd: ~0.1 nM
